From patent US20040063662A1, “Selenophene anti-tumor agents” (priority 1996, published 2004)

Legend:
T-47D = experiment: NCI human tumor cell panel: T-47D (Breast Cancer); type: cell-based; settings: T47D, Breast Cancer; for GI50: read-out: Log10 GI50 (converted); for IC (TGI): read-out: Log10 TGI (converted)
HCC-2998 = experiment: NCI human tumor cell panel: HCC-2998 (Colon Cancer); type: cell-based; settings: HCC-2998, Colon Cancer; for GI50: read-out: Log10 GI50 (converted); for IC (TGI): read-out: Log10 TGI (converted)
UACC-257 = experiment: NCI human tumor cell panel: UACC-257 (Melanoma); type: cell-based; settings: UACC-257, Melanoma; for GI50: read-out: Log10 GI50 (converted); for IC (TGI): read-out: Log10 TGI (converted)
HL-60(TB) = experiment: NCI human tumor cell panel: HL-60(TB) (Leukemia); type: cell-based; settings: Leukemia; for GI50: read-out: Log10 GI50 (converted)
K-562 = experiment: NCI human tumor cell panel: K-562 (Leukemia); type: cell-based; settings: K562, K-562, Leukemia; for GI50: read-out: Log10 GI50 (converted); for IC (TGI): read-out: Log10 TGI (converted)
M14 = experiment: NCI human tumor cell panel: M14 (Melanoma); type: cell-based; settings: M14, Melanoma; for GI50: read-out: Log10 GI50 (converted); for IC (TGI): read-out: Log10 TGI (converted)
SF-268 = experiment: NCI human tumor cell panel: SF-268 (CNS Cancer); type: cell-based; settings: SF-268, CNS Cancer; for GI50: read-out: Log10 GI50 (converted); for IC (TGI): read-out: Log10 TGI (converted)
NCI-H460 = experiment: NCI human tumor cell panel: NCI-H460 (Non-Small Cell Lung Cancer); type: cell-based; settings: NCI-H460, Non-Small Cell Lung Cancer; for GI50: read-out: Log10 GI50 (converted); for IC (TGI): read-out: Log10 TGI (converted)
SK-MEL-5 = experiment: NCI human tumor cell panel: SK-MEL-5 (Melanoma); type: cell-based; settings: SK-MEL-5, Melanoma; for GI50: read-out: Log10 GI50 (converted); for IC (TGI): read-out: Log10 TGI (converted)
NCI-H226 = experiment: NCI human tumor cell panel: NCI-H226 (Non-Small Cell Lung Cancer); type: cell-based; settings: NCI-H226, Non-Small Cell Lung Cancer; for GI50: read-out: Log10 GI50 (converted); for IC (TGI): read-out: Log10 TGI (converted)
[1] = test system: panel of sixty different human tumor cell lines; experiment: NCI human tumor cell panel: whole panel (mean graph summary)
SK-MEL-28 = experiment: NCI human tumor cell panel: SK-MEL-28 (Melanoma); type: cell-based; settings: SK-MEL-28, Melanoma; for GI50: read-out: Log10 GI50 (converted); for IC (TGI): read-out: Log10 TGI (converted)
TK-10 = experiment: NCI human tumor cell panel: TK-10 (Renal Cancer); type: cell-based; settings: TK-10, Renal Cancer; for GI50: read-out: Log10 GI50 (converted); for IC (TGI): read-out: Log10 TGI (converted)
NCI-H322M = experiment: cells; type: cell-based; settings: Homo sapiens, Non-Small Cell Lung Cancer; for GI50: read-out: Log10 GI50 (converted); for IC (TGI): read-out: Log10 TGI (converted)
A498 = experiment: NCI human tumor cell panel: A498 (Renal Cancer); type: cell-based; settings: A498, Renal Cancer; for GI50: read-out: Log10 GI50 (converted); for IC (TGI): read-out: Log10 TGI (converted)
OVCAR-5 = experiment: NCI human tumor cell panel: OVCAR-5 (Ovarian Cancer); type: cell-based; settings: OVCAR-5, Ovarian Cancer; for GI50: read-out: Log10 GI50 (converted); for IC (TGI): read-out: Log10 TGI (converted)
KM12 = experiment: NCI human tumor cell panel: KM12 (Colon Cancer); type: cell-based; settings: KM12, Colon Cancer; for GI50: read-out: Log10 GI50 (converted); for IC (TGI): read-out: Log10 TGI (converted)
MDA-MB-435 = experiment: NCI human tumor cell panel: MDA-MB-435 (Breast Cancer); type: cell-based; settings: MDA-MB-435, Breast Cancer; for GI50: read-out: Log10 GI50 (converted); for IC (TGI): read-out: Log10 TGI (converted)
RXF-393 = experiment: NCI human tumor cell panel: RXF-393 (Renal Cancer); type: cell-based; settings: RXF-393, Renal Cancer; for GI50: read-out: Log10 GI50 (converted); for IC (TGI): read-out: Log10 TGI (converted)
CAKI-1 = experiment: NCI human tumor cell panel: CAKI-1 (Renal Cancer); type: cell-based; settings: CAKI-1, Renal Cancer; for GI50: read-out: Log10 GI50 (converted); for IC (TGI): read-out: Log10 TGI (converted)
MCF7 = experiment: NCI human tumor cell panel: MCF7 (Breast Cancer); type: cell-based; settings: MCF7, Breast Cancer; for GI50: read-out: Log10 GI50 (converted); for IC (TGI): read-out: Log10 TGI (converted)
SK-MEL-2 = experiment: NCI human tumor cell panel: SK-MEL-2 (Melanoma); type: cell-based; settings: SK-MEL-2, Melanoma; for GI50: read-out: Log10 GI50 (converted); for IC (TGI): read-out: Log10 TGI (converted)
SNB-75 = experiment: NCI human tumor cell panel: SNB-75 (CNS Cancer); type: cell-based; settings: SNB-75, CNS Cancer; for GI50: read-out: Log10 GI50 (converted); for IC (TGI): read-out: Log10 TGI (converted)
IGROV1 = experiment: NCI human tumor cell panel: IGROV1 (Ovarian Cancer); type: cell-based; settings: IGROV-1, IGROV1, Ovarian Cancer; for GI50: read-out: Log10 GI50 (converted); for IC (TGI): read-out: Log10 TGI (converted)
COLO 205 = experiment: NCI human tumor cell panel: COLO 205 (Colon Cancer); type: cell-based; settings: COLO 205, Colon Cancer; for GI50: read-out: Log10 GI50 (converted); for IC (TGI): read-out: Log10 TGI (converted)
MCF7/ADR-RES = experiment: NCI human tumor cell panel: MCF7/ADR-RES (Breast Cancer); type: cell-based; settings: Breast Cancer
SR = experiment: NCI human tumor cell panel: SR (Leukemia); type: cell-based; settings: Leukemia
MDA-MB-231/ATCC = experiment: NCI human tumor cell panel: MDA-MB-231/ATCC (Breast Cancer); type: cell-based; settings: Homo sapiens, MDA-MB-231, MDA-MB-231/ATCC, Breast Cancer
[2] = read-out: Log10 GI50 (converted)
[3] = read-out: Log10 TGI (converted)

## O=Cc1ccc(-c2ccc(-c3ccc[se]3)[se]2)[se]1 [NSC 675244]
T-47D
  GI50: 11.2 µM
  IC (TGI): 23.4 µM
HCC-2998
  GI50: 2.51 µM
  IC (TGI): 11.5 µM
UACC-257
  GI50: 0.309 µM
  IC (TGI): 0.851 µM
HL-60(TB)
  GI50: 2.45 µM
K-562
  GI50: 1.35 µM
  IC (TGI): 33.1 µM
M14
  GI50: 11.5 µM
  IC (TGI): 28.8 µM
SF-268
  GI50: 4.47 µM
  IC (TGI): 57.5 µM
NCI-H460
  GI50: 2.24 µM
  IC (TGI): 16.2 µM
SK-MEL-5
  GI50: 3.39 µM
  IC (TGI): 13.8 µM
NCI-H226
  GI50: 2.24 µM
  IC (TGI): 5.13 µM
[1]; Homo sapiens, read-out: Log10 GI50, cell line not given (converted)
  GI50: 3.8 µM
[1]; Homo sapiens, read-out: Log10 LC50, cell line not given (converted)
  CC50: > 100 µM
[1]; cell line not given
  Log10 GI50: −5.39
  Log10 TGI: −4.45
SK-MEL-28
  GI50: 13.2 µM
  IC (TGI): 26.9 µM
TK-10
  GI50: 0.288 µM
  IC (TGI): 0.891 µM
NCI-H322M
  GI50: 13.2 µM
  IC (TGI): 28.2 µM
A498
  GI50: 1.41 µM
  IC (TGI): 2.95 µM
OVCAR-5
  GI50: 0.55 µM
  IC (TGI): 13.2 µM
KM12
  GI50: 6.31 µM
  IC (TGI): 19.5 µM
MDA-MB-435
  GI50: 10.2 µM
  IC (TGI): 33.1 µM
RXF-393
  GI50: 1.95 µM
  IC (TGI): 8.13 µM
CAKI-1
  GI50: 0.204 µM
  IC (TGI): 0.708 µM
MCF7
  GI50: 0.479 µM
  IC (TGI): 11.5 µM
SK-MEL-2
  GI50: 16.6 µM
  IC (TGI): 45.7 µM
SNB-75
  GI50: 2 µM
  IC (TGI): 6.46 µM
IGROV1
  GI50: 3.31 µM
  IC (TGI): 15.5 µM
COLO 205
  GI50: 3.16 µM
  IC (TGI): 12 µM

## O=Cc1ccc(-c2ccc(-c3ccc(C=O)[se]3)[se]2)[se]1 [NSC 675245]
T-47D
  GI50: 15.8 µM
  IC (TGI): > 100 µM
HCC-2998
  GI50: 4.79 µM
  IC (TGI): > 100 µM
MCF7/ADR-RES; [2]
  GI50: > 100 µM
MCF7/ADR-RES; [3]
  IC (TGI): > 100 µM
UACC-257
  GI50: 0.324 µM
  IC (TGI): 0.912 µM
SR; [2]
  GI50: > 100 µM
SR; [3]
  IC (TGI): > 100 µM
HL-60(TB)
  GI50: > 100 µM
HL-60(TB); read-out: Log10 TGI
  IC (TGI): > 100 µM
K-562
  GI50: 6.76 µM
  IC (TGI): > 100 µM
M14
  GI50: > 100 µM
  IC (TGI): > 100 µM
SF-268
  GI50: > 100 µM
  IC (TGI): > 100 µM
NCI-H460
  GI50: 1.78 µM
  IC (TGI): > 100 µM
SK-MEL-5
  GI50: 72.4 µM
  IC (TGI): > 100 µM
NCI-H226
  GI50: 0.977 µM
  IC (TGI): 3.63 µM
SK-MEL-28
  GI50: > 100 µM
  IC (TGI): > 100 µM
TK-10
  GI50: 0.257 µM
  IC (TGI): 0.813 µM
NCI-H322M
  GI50: > 100 µM
  IC (TGI): > 100 µM
A498
  GI50: 0.309 µM
  IC (TGI): 0.891 µM
OVCAR-5
  GI50: 0.776 µM
  IC (TGI): > 100 µM
KM12
  GI50: > 100 µM
  IC (TGI): > 100 µM
MDA-MB-435
  GI50: > 100 µM
  IC (TGI): > 100 µM
RXF-393
  GI50: 12 µM
  IC (TGI): > 100 µM
CAKI-1
  GI50: 0.269 µM
  IC (TGI): 0.933 µM
MCF7
  GI50: 1.48 µM
  IC (TGI): > 100 µM
MDA-MB-231/ATCC; [2]
  GI50: > 100 µM
MDA-MB-231/ATCC; [3]
  IC (TGI): > 100 µM
SK-MEL-2
  GI50: > 100 µM
  IC (TGI): > 100 µM
SNB-75
  GI50: 10 µM
  IC (TGI): > 100 µM
IGROV1
  GI50: 67.6 µM
  IC (TGI): 25.7 µM
COLO 205
  GI50: > 100 µM
  IC (TGI): > 100 µM
